Mutagenic call data for seven molecules are collected here from PubChem BioAssay AID1259407 (Chemical Carcinogenesis Research Information System (CCRIS), 2018).

The source made the active and inactive calls. No rule for the calls is given here.

This data set relates to CCRIS mutagenicity, Ames/micronucleus/aberration tests. The data set is described as follows: CCRIS mutagenicity studies.
Where [1] appears, read: Test System: AMES SALMONELLA TYPHIMURIUM, Strain/Indicator: TA98, Metabolic Activation: NONE, Method: STANDARD PLATE.
Setting [2] is: Test System: AMES SALMONELLA TYPHIMURIUM, Strain/Indicator: TA100, Metabolic Activation: NONE, Method: STANDARD PLATE.
[3] abbreviates: Test System: AMES SALMONELLA TYPHIMURIUM, Strain/Indicator: TA1535, Metabolic Activation: NONE, Method: STANDARD PLATE.
[4] abbreviates: Test System: AMES SALMONELLA TYPHIMURIUM, Strain/Indicator: TA1538, Metabolic Activation: NONE, Method: STANDARD PLATE.
[5] abbreviates: Test System: AMES SALMONELLA TYPHIMURIUM, Strain/Indicator: TA1537, Metabolic Activation: NONE, Method: STANDARD PLATE.
Setting [6] is: Test System: AMES SALMONELLA TYPHIMURIUM, Strain/Indicator: TA1538, Metabolic Activation: RAT, LIVER, S-9, AROCLOR 1254, Method: STANDARD PLATE.
Where [7] appears, read: Test System: AMES SALMONELLA TYPHIMURIUM, Strain/Indicator: TA100, Metabolic Activation: NONE, Method: PREINCUBATION

Take `Cn1c2ccccc2c(=O)c2c(O)cc3c(c21)CC(C(C)(O)CCl)O3` (stereo not drawn): the mutagenic call under setting [1] was “active; positive”; the mutagenic call (Test System: AMES SALMONELLA TYPHIMURIUM, Strain/Indicator: TA98, Metabolic Activation: RAT, LIVER, S-9, PHENOBARBITAL, Method: STANDARD PLATE) is “active; positive”; the mutagenic call under setting [2] was “active; positive”; the mutagenic call (Test System: AMES SALMONELLA TYPHIMURIUM, Strain/Indicator: TA100, Metabolic Activation: RAT, LIVER, S-9, PHENOBARBITAL, Method: STANDARD PLATE) is “active; positive”; the mutagenic call under setting [3] was “inactive; negative”; the mutagenic call (Test System: AMES SALMONELLA TYPHIMURIUM, Strain/Indicator: TA1535, Metabolic Activation: RAT, LIVER, S-9, PHENOBARBITAL, Method: STANDARD PLATE) was “inactive; negative”. For the same molecule, the mutagenic call reads like this: under setting [4], “active; positive”; (Test System: AMES SALMONELLA TYPHIMURIUM, Strain/Indicator: TA1538, Metabolic Activation: RAT, LIVER, S-9, PHENOBARBITAL, Method: STANDARD PLATE) “active; positive”; (Test System: AMES SALMONELLA TYPHIMURIUM, Strain/Indicator: TA1978, Metabolic Activation: NONE, Method: STANDARD PLATE) “active; positive”; (Test System: AMES SALMONELLA TYPHIMURIUM, Strain/Indicator: TA1978, Metabolic Activation: RAT, LIVER, S-9, PHENOBARBITAL, Method: STANDARD PLATE) “inactive; negative”.
For `O=C([O-])c1cc(N=Nc2ccc(-c3ccc(N/N=c4/c(=O)cc/c(=N\Nc5cc(S(=O)(=O)[O-])ccc5[O-])c4=O)cc3)cc2)ccc1[O-].[Cu+2].[Na+].[Na+]`, the mutagenic call is, setting by setting: (End Point: IN VITRO CHROMOSOMAL ABERRATIONS, Test System: CHINESE HAMSTER OVARY CELLS, Metabolic Activation: NONE) “inactive; negative”; (End Point: IN VITRO CHROMOSOMAL ABERRATIONS, Test System: CHINESE HAMSTER OVARY CELLS, Metabolic Activation: RAT, LIVER, S-9, AROCLOR 1254) “inactive; negative”; (Test System: AMES SALMONELLA TYPHIMURIUM, Strain/Indicator: TA98, Metabolic Activation: HAMSTER, LIVER, S-9, Method: PREINCUBATION (PRIVAL METHOD)) “active; positive”; under setting [1], “inactive; negative”; (Test System: AMES SALMONELLA TYPHIMURIUM, Strain/Indicator: TA98, Metabolic Activation: RAT, LIVER, S-9, AROCLOR 1254, Method: STANDARD PLATE) “inactive; negative”; under setting [2], “inactive; negative”. Besides, the mutagenic call reads like this: (Test System: AMES SALMONELLA TYPHIMURIUM, Strain/Indicator: TA100, Metabolic Activation: RAT, LIVER, S-9, AROCLOR 1254, Method: STANDARD PLATE) “inactive; negative”; under setting [3], “inactive; negative”; (Test System: AMES SALMONELLA TYPHIMURIUM, Strain/Indicator: TA1535, Metabolic Activation: RAT, LIVER, S-9, AROCLOR 1254, Method: STANDARD PLATE) “inactive; negative”; under setting [5], “inactive; negative”; (Test System: AMES SALMONELLA TYPHIMURIUM, Strain/Indicator: TA1537, Metabolic Activation: RAT, LIVER, S-9, AROCLOR 1254, Method: STANDARD PLATE) “inactive; negative”; under setting [4], “inactive; negative”. For the same molecule, the mutagenic call under setting [6] was “inactive; negative”.
`CCc1cc(-c2ccccc2)cc(CC)c1N`: the mutagenic call by setting is: under setting [1], “inactive; negative”; (Test System: AMES SALMONELLA TYPHIMURIUM, Strain/Indicator: TA98, Metabolic Activation: RAT LIVER S-9, AROCLOR, Method: STANDARD PLATE) “inactive; negative”; under setting [2], “inactive; negative”; (Test System: AMES SALMONELLA TYPHIMURIUM, Strain/Indicator: TA100, Metabolic Activation: RAT LIVER S-9, AROCLOR, Method: STANDARD PLATE) “inactive; negative”.
Turning to `C=CC(=O)OCCOC(=O)C=C`, the mutagenic call is “inactive; negative” (Test System: AMES SALMONELLA TYPHIMURIUM, Strain/Indicator: TA98, Metabolic Activation: HAMSTER, LIVER, S-9, AROCLOR 1254, Method: STANDARD PLATE); “inactive; negative” under setting [1]; “inactive; negative” (Test System: AMES SALMONELLA TYPHIMURIUM, Strain/Indicator: TA98, Metabolic Activation: RAT, LIVER, S-9, SODIUM PHENOBARBITAL, Method: STANDARD PLATE); “inactive; negative” (Test System: AMES SALMONELLA TYPHIMURIUM, Strain/Indicator: TA100, Metabolic Activation: HAMSTER, LIVER, S-9, AROCLOR 1254, Method: STANDARD PLATE); “inactive; negative” under setting [2]; “inactive; negative” (Test System: AMES SALMONELLA TYPHIMURIUM, Strain/Indicator: TA100, Metabolic Activation: RAT, LIVER, S-9, SODIUM PHENOBARBITAL, Method: STANDARD PLATE). Moreover, the mutagenic call (Test System: AMES SALMONELLA TYPHIMURIUM, Strain/Indicator: TA1535, Metabolic Activation: HAMSTER, LIVER, S-9, AROCLOR 1254, Method: STANDARD PLATE) was “inactive; negative”; the mutagenic call under setting [3] was “inactive; negative”; the mutagenic call (Test System: AMES SALMONELLA TYPHIMURIUM, Strain/Indicator: TA1535, Metabolic Activation: RAT, LIVER, S-9, SODIUM PHENOBARBITAL, Method: STANDARD PLATE) was “inactive; negative”; the mutagenic call (Test System: AMES SALMONELLA TYPHIMURIUM, Strain/Indicator: TA1537, Metabolic Activation: HAMSTER, LIVER, S-9, AROCLOR 1254, Method: STANDARD PLATE) is “inactive; negative”; the mutagenic call under setting [5] was “inactive; negative”; the mutagenic call (Test System: AMES SALMONELLA TYPHIMURIUM, Strain/Indicator: TA1537, Metabolic Activation: RAT, LIVER, S-9, SODIUM PHENOBARBITAL, Method: STANDARD PLATE) is “inactive; negative”. Also, the mutagenic call runs as follows: under setting [4], “inactive; negative”; under setting [6], “inactive; negative”; (Test System: AMES SALMONELLA TYPHIMURIUM, Strain/Indicator: TA1538, Metabolic Activation: RAT, LIVER, S-9, SODIUM PHENOBARBITAL, Method: STANDARD PLATE) “inactive; negative”.
Regarding `CC(C)(C)[N+](=O)[O-]`, the mutagenic call under setting [7] was “inactive; negative”; the mutagenic call (Test System: AMES SALMONELLA TYPHIMURIUM, Strain/Indicator: TA100, Metabolic Activation: RAT, LIVER, S-9, AROCLOR, Method: PREINCUBATION) was “inactive; negative”; the mutagenic call (Test System: AMES SALMONELLA TYPHIMURIUM, Strain/Indicator: TA102, Metabolic Activation: NONE, Method: PREINCUBATION) was “inactive; negative”; the mutagenic call (Test System: AMES SALMONELLA TYPHIMURIUM, Strain/Indicator: TA102, Metabolic Activation: RAT, LIVER, S-9, AROCLOR, Method: PREINCUBATION) is “inactive; negative”.
`CC(=O)Nc1ccc(S(=O)(=O)Nc2ccccn2)cc1`: the mutagenic call was “inactive; negative” (Test System: AMES SALMONELLA TYPHIMURIUM, Strain/Indicator: TA98, Metabolic Activation: NONE, Method: PREINCUBATION); “inactive; negative” (Test System: AMES SALMONELLA TYPHIMURIUM, Strain/Indicator: TA98, Metabolic Activation: RAT, LIVER, S-9, AROCLOR 1254, Method: PREINCUBATION); “inactive; negative” under setting [7]; “inactive; negative” (Test System: AMES SALMONELLA TYPHIMURIUM, Strain/Indicator: TA100, Metabolic Activation: RAT, LIVER, S-9, AROCLOR 1254, Method: PREINCUBATION).
Turning to `N=NCCCO`, the mutagenic call by setting is: under setting [3], “active; positive”; (Test System: E. COLI, Strain/Indicator: WP2, Metabolic Activation: NONE, Method: STANDARD PLATE) “active; positive”; (Test System: E. COLI, Strain/Indicator: WP2 UVRA, Metabolic Activation: NONE, Method: STANDARD PLATE) “active; positive”.
